# Source: ChEMBL document CHEMBL4414590, “Discovery of SIAIS178 as an Effective BCR-ABL Degrader by Recruiting Von Hippel-Lindau (VHL) E3 Ubiquitin Ligase” (J Med Chem, 2019)
# Active and inactive are the calls of the source. The rule behind the calls is not given here.
# How the values were obtained:
# [1] = system: K562; assay: Effect on BCR-ABL protein levels in human K562 cells at 100 nM up to 24 hrs by Western blot analysis; type: ADME, cell-based; details: k562, 24 h, 0.1 µM
# [2] = target: T1, von Hippel-Lindau disease tumor suppressor/Tyrosine-protein kinase ABL1/Breakpoint cluster region protein (Homo sapiens, UniProt P00519+P11274+P40337); assay: Protac activity against VHL/BCR-ABL in human K562 cells assessed as induction of BCR-ABL degradation pre-treated with 2.5 uM proteasome inhibitor MG132 for 2 hrs followed by compound addition at 100 nM and further incubated for 8 hrs by Western blot analysis; type: cell-based
# [3] = target: T2, Bcr/Abl fusion protein (Homo sapiens) (UniProt P00519+P11274); assay: Inhibition of BCR-ABL in human KU812 cells assessed as reduction in STAT5 phosphorylation at 1 to 30 nM by Western blot analysis; type: cell-based
# [4] = system: K562; assay: Effect on LYN protein level in human K562 cells at 100 nM incubated for 16 hrs by multiplexed tandem mass spectrometry; type: ADME, cell-based; details: k562, 16 h, 0.1 µM
# [5] = target: T1, von Hippel-Lindau disease tumor suppressor/Tyrosine-protein kinase ABL1/Breakpoint cluster region protein; assay: Induction of ternary complex formation between VHL and BCR-ABL (unknown origin) expressed in HEK293 cells expressing N-terminal BCR-ABL LgBit fusion protein and N-terminal SmBit-VHL fusion protein at 1 uM incubated for 1 hr by NanoBit technology based luciferase complementation assay; type: cell-based
# [6] = target: T2, Bcr/Abl fusion protein (Homo sapiens); assay: Inhibition of BCR-ABL phosphorylation in human K562 cells at 1 to 100 nM by Western blot analysis; type: cell-based
# [7] = system: U-937; assay: Growth inhibition of human U937 cells incubated for 2 days by CCK8 assay; type: functional, cell-based
# [8] = system: von Hippel-Lindau disease tumor suppressor/Tyrosine-protein kinase ABL1/Breakpoint cluster region protein (Homo sapiens), P00519+P11274+P40337 [T315A]; assay: Protac activity against VHL/BCR-ABL T315A mutant (unknown origin) expressed in human U937 cells assessed as induction of BCR-ABL degradation incubated for 16 hrs by Western blot analysis; type: cell-based
# [9] = system: K562; assay: Antitumor activity against luciferse expressing human K562 cells xenografted in NOD/SCID mouse assessed as reduction in tumor burden at 5 to 15 mg/kg, ip QD for 12 days by bioluminescence imaging analysis; type: functional, organism-based
# [10] = target: T1, von Hippel-Lindau disease tumor suppressor/Tyrosine-protein kinase ABL1/Breakpoint cluster region protein; assay: Protac activity against VHL/BCR-ABL in human K562 cells assessed as induction of BCR-ABL degradation by Western blot analysis; type: cell-based
# [11] = target: von Hippel-Lindau disease tumor suppressor/Tyrosine-protein kinase ABL2 (Homo sapiens) (UniProt P42684+P40337); assay: Protac activity against VHL/ABL2 in human K562 cells assessed as reduction in ABL2 protein levels at 1 to 100 nM incubated for 16 hrs by Western blot analysis; type: cell-based
# [12] = target: von Hippel-Lindau disease tumor suppressor/Receptor-interacting serine/threonine-protein kinase 2 (Homo sapiens) (UniProt O43353+P40337); assay: Protac activity against VHL/RIPK2 in human K562 cells assessed as reduction in RIPK2 protein levels at 1 to 100 nM incubated for 16 hrs by Western blot analysis; type: cell-based
# [13] = system: von Hippel-Lindau disease tumor suppressor/Tyrosine-protein kinase ABL1/Breakpoint cluster region protein (Homo sapiens), P00519+P11274+P40337 [F317V]; assay: Protac activity against VHL/BCR-ABL F317V mutant (unknown origin) expressed in human U937 cells assessed as induction of BCR-ABL degradation incubated for 16 hrs by Western blot analysis; type: cell-based
# [14] = system: von Hippel-Lindau disease tumor suppressor/Tyrosine-protein kinase ABL1/Breakpoint cluster region protein (Homo sapiens), P00519+P11274+P40337 [T315I]; assay: Protac activity against VHL/BCR-ABL T315I mutant (unknown origin) expressed in human U937 cells assessed as induction of BCR-ABL degradation incubated for 16 hrs by Western blot analysis; type: cell-based
# [15] = target: T1, von Hippel-Lindau disease tumor suppressor/Tyrosine-protein kinase ABL1/Breakpoint cluster region protein; assay: Protac activity against VHL/BCR-ABL in human K562 cells assessed as induction of BCR-ABL degradation pre-treated with 4 uM VHL1 for 2 hrs followed by compound addition at 100 nM and further incubated for 8 hrs by Western blot analysis; type: cell-based
# [16] = target: T1, von Hippel-Lindau disease tumor suppressor/Tyrosine-protein kinase ABL1/Breakpoint cluster region protein; assay: Protac activity against VHL/BCR-ABL in human K562 cells assessed as induction of BCR-ABL degradation at 100 nM incubated up to 24 hrs by Western blot analysis; type: cell-based; details: TDE = time-dependent effect
# [17] = system: HEK293; assay: Growth inhibition of human HEK293 cells incubated for 2 days by CCK8 assay; type: cell-based; details: hek293, 48 h
# [18] = target: T1, von Hippel-Lindau disease tumor suppressor/Tyrosine-protein kinase ABL1/Breakpoint cluster region protein; assay: Protac activity against VHL/BCR-ABL in human K562 cell lysates assessed as induction of pull down of endogenous BCR-ABL at 10 to 100 nM in presence of excess immobilized GST-VBC bait by GST-pull down assay; type: subcellular; details: Lysate
# [19] = target: von Hippel-Lindau disease tumor suppressor/Tyrosine-protein kinase ABL1 (Homo sapiens) (UniProt P00519+P40337); assay: Protac activity against VHL/c-ABL in human K562 cells assessed as reduction in c-ABL protein levels at 1 to 100 nM incubated for 16 hrs by Western blot analysis; type: cell-based
# [20] = system: von Hippel-Lindau disease tumor suppressor/Tyrosine-protein kinase ABL1/Breakpoint cluster region protein (Homo sapiens), P00519+P11274+P40337 [F317L]; assay: Protac activity against VHL/BCR-ABL F317L mutant (unknown origin) expressed in human U937 cells assessed as induction of BCR-ABL degradation incubated for 16 hrs by Western blot analysis; type: cell-based
# [21] = target: T1, von Hippel-Lindau disease tumor suppressor/Tyrosine-protein kinase ABL1/Breakpoint cluster region protein; assay: Induction of ternary complex formation between VHL and BCR-ABL (unknown origin) expressed in HEK293 cells expressing N-terminal BCR-ABL LgBit fusion protein and N-terminal SmBit-VHL fusion protein pre-treated with 10 uM dasatinib for 2 hrs followed by compound addition at 1 uM and further incubated for 1 hr by NanoBit technology based luciferase complementation assay; type: cell-based
# [22] = target: T2, Bcr/Abl fusion protein (Homo sapiens); assay: Inhibition of BCR-ABL phosphorylation in human KU812 cells at 1 to 30 nM by Western blot analysis; type: cell-based
# [23] = target: Tyrosine-protein kinase ABL1 (Homo sapiens) (UniProt P00519); assay: Binding affinity to human phosphorylated ABL1 (S229 to K512 residues) expressed in mammalian expression system assessed as residual binding level at 10 uM by Kinomescan method relative to control
# Sequence of Tyrosine-protein kinase ABL1 (Homo sapiens) (P00519 whole entry, the tested form may be a part): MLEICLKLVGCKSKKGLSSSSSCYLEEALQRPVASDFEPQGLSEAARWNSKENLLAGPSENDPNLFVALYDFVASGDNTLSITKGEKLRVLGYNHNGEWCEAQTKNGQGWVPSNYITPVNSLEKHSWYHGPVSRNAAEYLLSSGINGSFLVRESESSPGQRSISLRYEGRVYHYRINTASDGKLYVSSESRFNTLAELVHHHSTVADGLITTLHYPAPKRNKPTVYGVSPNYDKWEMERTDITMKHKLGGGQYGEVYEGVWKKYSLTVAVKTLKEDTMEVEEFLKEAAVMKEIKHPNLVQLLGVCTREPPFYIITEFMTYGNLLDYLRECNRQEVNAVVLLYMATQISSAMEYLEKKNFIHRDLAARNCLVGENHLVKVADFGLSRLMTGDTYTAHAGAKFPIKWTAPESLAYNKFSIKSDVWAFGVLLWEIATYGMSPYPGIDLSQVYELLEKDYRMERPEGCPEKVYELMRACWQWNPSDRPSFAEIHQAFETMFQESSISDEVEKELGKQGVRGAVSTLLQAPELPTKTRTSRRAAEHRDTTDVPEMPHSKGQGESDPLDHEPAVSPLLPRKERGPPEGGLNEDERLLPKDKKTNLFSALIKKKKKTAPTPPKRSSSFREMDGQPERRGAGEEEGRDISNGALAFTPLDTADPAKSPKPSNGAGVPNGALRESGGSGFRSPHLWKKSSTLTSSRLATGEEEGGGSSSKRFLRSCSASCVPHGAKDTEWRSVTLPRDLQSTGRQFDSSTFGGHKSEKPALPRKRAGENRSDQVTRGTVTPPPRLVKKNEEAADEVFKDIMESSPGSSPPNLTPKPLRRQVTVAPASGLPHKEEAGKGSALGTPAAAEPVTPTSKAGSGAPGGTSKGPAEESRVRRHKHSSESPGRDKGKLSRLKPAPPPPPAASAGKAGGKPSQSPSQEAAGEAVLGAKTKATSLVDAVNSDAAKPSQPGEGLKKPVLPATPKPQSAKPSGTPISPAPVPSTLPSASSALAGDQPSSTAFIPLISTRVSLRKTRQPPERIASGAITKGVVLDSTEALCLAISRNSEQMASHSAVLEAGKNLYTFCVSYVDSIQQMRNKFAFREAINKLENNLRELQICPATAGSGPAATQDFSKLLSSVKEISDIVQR
# T2 sequence (P00519 whole entry, looked up, the tested form may be a part): as the sequence (P00519 whole entry, the tested form may be a part) above
# T2 sequence (P11274 whole entry, looked up, the tested form may be a part): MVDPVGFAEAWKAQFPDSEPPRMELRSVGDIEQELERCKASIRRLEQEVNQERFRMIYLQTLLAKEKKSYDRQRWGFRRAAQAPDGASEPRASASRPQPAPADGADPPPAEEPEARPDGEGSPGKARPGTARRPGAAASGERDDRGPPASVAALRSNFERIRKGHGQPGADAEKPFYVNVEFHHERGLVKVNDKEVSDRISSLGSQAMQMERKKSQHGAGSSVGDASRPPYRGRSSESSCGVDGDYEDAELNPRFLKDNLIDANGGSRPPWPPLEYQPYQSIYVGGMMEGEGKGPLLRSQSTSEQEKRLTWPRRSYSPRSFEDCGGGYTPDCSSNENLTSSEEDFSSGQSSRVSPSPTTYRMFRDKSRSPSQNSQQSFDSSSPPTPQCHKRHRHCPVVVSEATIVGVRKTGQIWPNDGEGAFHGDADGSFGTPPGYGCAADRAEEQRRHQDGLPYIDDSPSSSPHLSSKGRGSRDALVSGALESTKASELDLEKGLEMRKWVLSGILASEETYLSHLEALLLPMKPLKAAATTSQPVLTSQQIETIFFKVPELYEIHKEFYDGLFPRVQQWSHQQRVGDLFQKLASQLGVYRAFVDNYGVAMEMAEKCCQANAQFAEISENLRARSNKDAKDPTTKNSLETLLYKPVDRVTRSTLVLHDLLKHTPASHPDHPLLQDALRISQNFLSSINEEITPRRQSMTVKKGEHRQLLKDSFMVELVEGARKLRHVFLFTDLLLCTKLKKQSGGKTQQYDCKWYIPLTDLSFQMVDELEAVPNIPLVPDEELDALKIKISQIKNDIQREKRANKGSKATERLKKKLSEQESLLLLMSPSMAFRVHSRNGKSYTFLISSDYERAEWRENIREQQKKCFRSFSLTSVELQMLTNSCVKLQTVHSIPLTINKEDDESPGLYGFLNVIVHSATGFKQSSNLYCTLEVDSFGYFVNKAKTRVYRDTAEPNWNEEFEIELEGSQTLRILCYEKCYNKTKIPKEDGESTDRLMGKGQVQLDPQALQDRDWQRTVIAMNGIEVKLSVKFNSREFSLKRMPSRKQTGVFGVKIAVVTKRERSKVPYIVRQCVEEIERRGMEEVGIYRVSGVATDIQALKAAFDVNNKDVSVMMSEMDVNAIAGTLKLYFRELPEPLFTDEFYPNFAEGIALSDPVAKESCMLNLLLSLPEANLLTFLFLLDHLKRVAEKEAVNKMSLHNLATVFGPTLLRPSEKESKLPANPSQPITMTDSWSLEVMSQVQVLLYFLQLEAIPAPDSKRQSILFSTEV
# Sequence of von Hippel-Lindau disease tumor suppressor/Tyrosine-protein kinase ABL2 (Homo sapiens) (P40337 whole entry, looked up): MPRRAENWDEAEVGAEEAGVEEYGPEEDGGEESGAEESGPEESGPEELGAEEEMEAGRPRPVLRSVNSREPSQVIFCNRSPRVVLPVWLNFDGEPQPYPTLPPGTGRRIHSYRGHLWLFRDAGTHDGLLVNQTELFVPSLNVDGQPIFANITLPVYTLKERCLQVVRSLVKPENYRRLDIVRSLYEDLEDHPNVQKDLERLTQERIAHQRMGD
# Sequence of von Hippel-Lindau disease tumor suppressor/Tyrosine-protein kinase ABL2 (Homo sapiens) (P42684 whole entry, looked up): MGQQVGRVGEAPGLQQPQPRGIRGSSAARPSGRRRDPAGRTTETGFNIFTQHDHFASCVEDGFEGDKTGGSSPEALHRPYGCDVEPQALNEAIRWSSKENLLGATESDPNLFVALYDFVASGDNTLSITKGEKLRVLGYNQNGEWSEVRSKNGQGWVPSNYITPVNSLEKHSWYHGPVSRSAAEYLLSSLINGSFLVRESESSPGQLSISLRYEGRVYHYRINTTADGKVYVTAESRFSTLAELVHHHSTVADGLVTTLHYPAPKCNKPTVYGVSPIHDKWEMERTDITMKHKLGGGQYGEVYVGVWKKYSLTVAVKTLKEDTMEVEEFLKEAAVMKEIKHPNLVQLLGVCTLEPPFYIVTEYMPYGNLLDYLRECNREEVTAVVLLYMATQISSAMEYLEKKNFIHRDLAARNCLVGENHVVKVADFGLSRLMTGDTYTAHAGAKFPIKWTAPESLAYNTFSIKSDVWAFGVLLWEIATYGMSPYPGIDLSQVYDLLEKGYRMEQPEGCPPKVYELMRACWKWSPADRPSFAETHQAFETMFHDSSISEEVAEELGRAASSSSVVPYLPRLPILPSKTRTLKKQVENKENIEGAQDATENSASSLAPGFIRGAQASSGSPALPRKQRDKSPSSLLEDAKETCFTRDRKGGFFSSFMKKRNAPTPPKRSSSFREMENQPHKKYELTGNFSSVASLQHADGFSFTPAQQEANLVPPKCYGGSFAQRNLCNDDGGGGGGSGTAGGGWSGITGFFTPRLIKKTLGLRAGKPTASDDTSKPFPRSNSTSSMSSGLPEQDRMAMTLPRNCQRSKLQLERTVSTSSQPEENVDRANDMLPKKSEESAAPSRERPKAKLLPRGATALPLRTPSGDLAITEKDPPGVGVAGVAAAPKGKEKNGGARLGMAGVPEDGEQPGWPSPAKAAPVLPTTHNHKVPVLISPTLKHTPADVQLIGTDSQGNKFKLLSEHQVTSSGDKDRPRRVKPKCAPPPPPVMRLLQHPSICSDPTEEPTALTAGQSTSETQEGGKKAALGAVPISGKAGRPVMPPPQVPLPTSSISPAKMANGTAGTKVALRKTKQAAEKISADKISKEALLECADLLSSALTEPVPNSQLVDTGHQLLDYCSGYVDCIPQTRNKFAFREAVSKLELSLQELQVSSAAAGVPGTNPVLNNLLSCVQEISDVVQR
structure (smiles),measurement,setting,value
Cc1nc(Nc2ncc(C(=O)Nc3c(C)cccc3Cl)s2)cc(N2CCN(C(=O)CCCCCCC(=O)N[C@H](C(=O)N3C[C@H](O)C[C@H]3C(=O)NCc3ccc(-c4scnc4C)cc3)C(C)(C)C)CC2)n1,Activity,[1],Non-Toxic
same,Activity,[2],inactive
same,inhibition,[3],Active
same,Activity,[4],Non-Toxic
same,Activity,[5],Active
same,inhibition,[6],Active
same,growth inhibition (GI),[7],inactive
same,Activity,[8],inactive
same,Activity,[9],Active
same,Activity,[10],Dose-dependent effect
same,DC50,[10],8.5 nM
same,Activity,[11],Dose-dependent effect
same,Activity,[12],Dose-dependent effect
same,Activity,[13],Dose-dependent effect
same,Activity,[14],inactive
same,Activity,[15],inactive
same,Activity,[16],Tde
same,growth inhibition (GI),[17],Non-Toxic
same,Activity,[18],Dose-dependent effect
same,Activity,[19],Dose-dependent effect
same,Activity,[20],Dose-dependent effect
same,Activity,[21],inactive
same,inhibition,[22],Active
same,Activity,[23],Active
